The values that follow come from patent publication US8715697B2, “Genes associated with Leishmania parasite virulence” (priority 2001, dated 2014).

Where a SMILES comes first, the peptide text is derived from it. Bridges are numbered along the chain shown (N, C = ends). Where no end group is shown, it is not given here. [ ]: non-standard residue; d: D form. The star is where a group is joined. Ileψ(thiazoline)Cys = CC[C@H](C)[C@H](N)C1=N[C@H](C(=O)*)CS1; dOrn = NCCC[C@@H](N)C(=O)O

For one assay, the system named is recombinant LmPDI. Put plainly: Inhibition of reactivation of scrambled RNase A by recombinant LmPDI (thio-disulfide oxido-reductase activity). It counts as biochemical, Leishmania major. As to conditions: for inhibition of rLmPDI activity: FIG. 12; for concentration at which LmPDI activity is completely inhibited: inhibitors tested at 0.01, 0.1, 0.5 and 2 mM. As to the method: Scrambled RNase A (8 μM) was incubated in a buffer containing 4.5 mM cCMP, 1 mM glutathione GSH, 0.2 mM glutathione disulfide GSSH, 2 mM EDTA and 100 mM of Tris-HCl pH 8 in the presence of bovine serum albumin (BSA) (1.4 μM) as a negative control, bovine protein disulfide-isomerase (1.4 μM) as a positive control, or recombinant LmPDI (1.4 μM) for 30 minutes at 25° C. RNase A reactivation was determined by measuring the RNase A activity at 296 nm every 5 minutes, as described in the literature (Lyles and Gilbert, 1991).
The scrambled RNase A (8 μM) was incubated in a buffer containing 4.5 mM cCMP, 1 mM glutathione GSH, 0.2 mM glutathione disulfide GSSH, 2 mM EDTA and 100 mM Tris-HCl, pH 8, in the presence of bovine serum albumin (BSA) (1.4 μM) as a negative control, bovine protein disulfide-isomerase (1.4 μM) as a positive control, or recombinant LmPDI (1.4 μM) for 30 minutes at 25° C. RNase A reactivation was determined by measuring the RNase A activity at 296 nm every 5 minutes for 30 minutes as described in the literature (Lyles and Gilbert, 1991).
The experimental conditions for the thio-disulfide oxido-reductase activity inhibition tests for recombinant LmPDI were strictly identical to those described in the paragraph “Reactivation of RNase A in the presence of recombinant LmPDI protein”, except that the reactions were carried out in the presence of 0.01 mM, 0.1 mM, 0.5 mM and 2 mM of the following PDI inhibitors: • bacitracin; • zinc bacitracin; • p-chloromercuribenzoic acid (pCMBA); • tocinoic acid. d) Inhibition of Parasite (L. Major) Growth in a Liquid Medium
1—Evaluation of the inhibition of recombinant LmPDI. The detailed technique for analyzing the PDI activity of LmPDI was described in Example 2 and in the Materials and Methods section above. The same technique can be used to evaluate the capacity of certain PDI inhibitors which are known or still to be identified (using a molecular model of LmPDI), by adding different concentrations of potential inhibitors to the reaction volume. The results are expressed as the percentage inhibition compared with the buffer alone. Only molecules with a significant and dose-dependent LmPDI inhibiting activity are retained.
With the aim of determining whether the different PDI inhibitors described in the literature could inhibit the thio-disulfide oxido-reductase activity of LmPDI, the capacity of these inhibitors to block the enzymatic activity of LmPDI synthesized in E. coli then purified was studied in an in vitro test, at different-concentrations. The inhibitors were: • bacitracin; • zinc bacitracin; • p-chloromercuribenzoic acid (pCMBA); • tocinoic acid.
Twenty milligrams of RNase A (Amersham.-Pharmacia) was denatured in a buffer composed of 0.15 M dithiothreitol, 6M guanidine HCl and 0.1 M Tris-HCl, pH 8.6 for 18 hours at ambient temperature. The scrambled RNase was then purified on a Sephadex G25 column equilibrated in HCl 0.01 M and quantified by spectrophotometry at 275 nm.
In a glutathione-based reducing buffer, PDI catalyzes renaturing of scrambled RNase (Gilbert, 1998). Restoration of RNase activity was measured by spectrophotometry in the presence of cytidine 2′-3′-cyclic monophosphate (cCMP) as a substrate. 8 μM of scrambled RNase, alone or in the presence of 1.4 μM of bovine serum albumin (BSA) or 1.4 μM of rLmPDI was mixed in a buffer containing 4.5 mM of cCMP, 1 mM of reduced glutathione (GSH), 200 μM of oxidized glutathione (GSSG), 2 mM EDTA and 100 mM Tris-Cl, pH 8. The reaction was carried out at ambient temperature for 30 minutes. The hydrolysis of cCMP resulting from the renaturing of RNase was recorded by measuring the absorbance at 296 nm every 5 minutes for the half hour of the reaction.
The activity of the recombinant LmPDI (rLmPDI) was measured in the presence of different concentrations of bacitracin (BAC 0.01 mM-2 mM) and zinc bacitracin (BACZn, 0.01 mM-2 mM).

For assay [1], the system named is L. major GLC94 isolate promastigotes. Put plainly: Evolution of the disease in BALB/c mice infected with L. major GLC94 promastigotes, lesion size. It counts as in vivo. The source says: Sensitive BALB/c mice were infected with 10^6 promastigotes from the GLC94 isolate into the plantar pad and treated or not treated with bacitracin. The treatment was halted 9 weeks after infection (the arrow indicates treatment stoppage).
The availability of zinc bacitracin, which already forms a weapon in the therapeutic arsenal, has allowed it to be tested on the evolution of infection in the BALB/c mouse with L. major. Mice were infected with promastigotes in the stationary growth phase (10^6 promastigotes per paw) of the GLC94 isolate into the plantar pad of the rear paw and treated with a pomade based on 5 mM or 25 mM of BACZn (prepared in Vaseline). Treatment with the pomade was started 48 hours after injecting the parasites, by dint of one application per day over 5 days of the week. Mice infected in the same manner and treated with Vaseline were used as the control. The lesion size was measured each week.

Assay [2] has as its system L. major parasites in the exponential growth phase. Put plainly: Inhibition of parasite (L. major) growth in a liquid medium by PDI inhibitors. It counts as cell-based, Leishmania major. Conditions: for growth of Leishmania in a liquid medium (summary statement): no concentration stated, refers to Example 4; for concentration that completely inhibited the growth of L. major in a liquid medium: counted every 24 h over 96 h, FIG. 9 and FIG. 11. As to the method:
They are growth curves taken over 96 hours, for promastigotes of L major in the presence of 0, 1 mM, 1.5 mM or 2 mM of bacitracin.
Different concentrations of inhibitors (0 to 5 mM) were used to follow the effect of PDI inhibitors on the multiplication of parasites in vitro. Parasites that had not been treated with inhibitors (T) were selected as a control for these experiments.
With the aim of determining the effect of bacitracin (BAC), zinc bacitracin (BACZn), p-chloromercuribenzoic acid (PCMBA) and 5,5′-dithiobis(2-nitrobenzoic acid) (DTNB) on the in vitro growth of Leishmanias in a liquid medium, different concentrations of the inhibitors cited above, 0 mM, 0.05 mM, 0.1 mM, 0.2 mM, 0.5 mM, 1 mM, 1.5 mM, 2 mM, 2.5 mM and 5 mM were added to RPMI supplemented with 5% fetal calf serum and containing 2×10^6/ml of parasites in the exponential growth phase. The parasites were incubated at 26° C. and counted every 24 hours over 96 hours. The parasites were counted on Mallassez cells.
The PDI inhibitors described in paragraph (1—) were tested with the aim of evaluating their capacities to inhibit the in vitro growth of parasites. To this end, different quantities of inhibitors were added to RPMI containing 2×10^6/ml of parasites in the exponential growth phase. The parasites were incubated at 26° C. and counted every 24 hours over 96 hours. The parasites were counted on Mallassez cells.

Assay [3] concerns L. major GLC94 isolate promastigotes. Conditions: treatments used in man; general statement; cited from earlier work.
The subject of a further assay is GLC94 promastigotes. As to the kind of experiment: In vitro growth kinetics of L. major promastigotes in the presence of zinc bacitracin. It counts as cell-based, Leishmania major. Conditions: FIG. 13. As to the method:
FIG. 13 illustrates the inhibition of the multiplication of GLC94 promastigotes by zinc bacitracin. The effect of zinc bacitracin (BACZn) on the multiplication of GLC94 promastogotes was determined in vitro. Different concentrations of inhibitor were tested to analyze their effect on the capacity of the parasites to multiply in vitro. The control (C) was constituted by parasites cultivated in a complete medium in the absence of inhibitors.
To this end, promastigotes from the GLC94 isolate were cultured on a medium based on coagulated rabbit serum for two days. […] Promastigotes cultured in complete medium in the absence of inhibitors were used as the control. Monitoring was by counting the parasites at 48, 72 and 96 hours.

`CC[C@H](C)[C@H](N)C1=N[C@H](C(=O)N[C@@H](CC(C)C)C(=O)N[C@H](CCC(=O)O)C(=O)N[C@H](C(=O)N[C@H]2CCCCNC(=O)[C@H](CC(N)=O)NC(=O)[C@@H](CC(=O)O)NC(=O)[C@H](Cc3cnc[nH]3)NC(=O)[C@@H](Cc3ccccc3)NC(=O)[C@H]([C@@H](C)CC)NC(=O)[C@@H](CCCN)NC2=O)[C@@H](C)CC)CS1` [bacitracin] ({Ileψ(thiazoline)Cys}-L[dE]IK[dOrn]I[dF]H[dD]N; lactam 4-C): the “inhibition of rLmPDI activity” value in the assay on recombinant LmPDI (0.1 mM) stood at 50%; in the assay with recombinant LmPDI (0.5 mM), 70%; with recombinant LmPDI (2 mM) it was 100%. Also, the “concentration at which LmPDI activity is completely inhibited” value with recombinant LmPDI (FIG. 10) amounted to 2 mM. In addition, the “mice with lesion attenuation” value in assay [1] (pomade 5 mM) was 2 out of 3; in assay [1] (pomade 25 mM), 2 out of 4. Moreover, in assay [2], the “growth of Leishmania in a liquid medium (summary statement)” value is on record as “inhibits the growth”.
As to `O=S(=O)(O)c1cc[c]([Hg][Cl])cc1` [pCMBS, p-chloromercuribenzene sulfonic acid], in assay [2], the “growth of Leishmania in a liquid medium (summary statement)” value is “inhibits the growth”.
In the case of `NC[C@@H]1O[C@H](O[C@H]2[C@@H](O)[C@H](O[C@@H]3[C@@H](O)[C@H](N)C[C@H](N)[C@H]3O[C@H]3O[C@H](CO)[C@@H](O)[C@H](O)[C@H]3N)O[C@@H]2CO)[C@H](N)[C@@H](O)[C@@H]1O` [paramomycin], the “effect on the disease induced in the BALB/c mouse” value in assay [3] is “little effect”.
Consider `O=C(O)c1cc[c]([Hg][Cl])cc1` [pCMBA, p-chloromercuribenzoic acid], for which the “concentration at which LmPDI activity is completely inhibited” value with recombinant LmPDI (FIG. 10) came to 0.01 mM. Moreover, the “concentration that completely inhibited the growth of L. major in a liquid medium” value in assay [2] was found to be 0.5 mM.
Turning to “tocinoic acid (CYIQNC; not fully specified (bridges); cysteine pairing not given here; UniProt P01178 20-25, looked up, fragment)”, in the assay on recombinant LmPDI (FIG. 10, at the concentrations employed (0.01 to 2 mM)), the “effect on the activity of LmPDI” value is reported as “did not appear to have a very great effect”.
`CNC[C@H](O)[C@@H](O)[C@H](O)[C@H](O)CO.[O]=[Sb](=[O])[OH]` [glucantime]: the “effect on the disease induced in the BALB/c mouse” value in assay [3] is “little effect”.
For the compound zinc bacitracin, the “inhibition of rLmPDI activity” value in the assay with recombinant LmPDI (0.1 mM) is recorded as 50%; in the assay with recombinant LmPDI (0.5 mM), 70%; with recombinant LmPDI (2 mM), 100%. Moreover, in the assay with recombinant LmPDI (FIG. 10), the “concentration at which LmPDI activity is completely inhibited” value is 2 mM. In assay [1] (pomade in Vaseline applied locally at the injection site, from 48 h after infection, preliminary, FIG. 14), the “progress of the disease (lesion size)” value is listed as “attenuates the progress of the disease”. In addition, the “concentration that completely inhibited the growth of L. major in a liquid medium” value in assay [2] amounted to 2 mM. Also, the growth of parasites result with GLC94 promastigotes (1 mM) was “no effect”; in the assay with GLC94 promastigotes (1.5 mM) it was “partially inhibits”; in the assay on GLC94 promastigotes (2 mM), “complete inhibition”; in the assay on GLC94 promastigotes (5 mM), “complete inhibition”.
`O=C(O)c1cc(SSc2ccc([N+](=O)[O-])c(C(=O)O)c2)ccc1[N+](=O)[O-]` [DTNB, 5,5′-dithiobis(2-nitrobenzoic acid)]: in assay [2] (in the concentrations used (0 to 5 mM), FIG. 11), the “effect on the growth of Leishmanias in a liquid medium” value was “did not appear to have a very large effect”.
